From US20030215462A1, “Use of UGT inhibitors to increase bioavailability” (priority 2001, published 2003)

Assays:
[1] = tested on: T1, UGT enzymes of human liver microsomes; test: Kinetic and Ki studies of inhibitors of 7-HFC glucuronidation in human liver microsomes; format: biochemical; details: 7-HFC 20-500 μM
T1 construct: percentage of control metabolism, 7-HFC glucuronidation; percentage of control metabolism, 7-HFC glucuronidation

[2] = tested on: UGT enzymes of human liver microsomes; test: Inhibition of raloxifene glucuronidation (G1, G2) in human liver microsomes; format: biochemical; details: for % of control metabolism (SD, n = 3), raloxifene glucuronide G1 / % of control metabolism (SD, n = 3), raloxifene glucuronide G2: human liver microsomes 250 μg/ml, 15 min
From the text: Compounds were eluted using a binary solvent gradient system. […] Solvent B was methanol. […] Detection was at 280 nm.

[3] = tested on: UGT enzymes of pooled human jejunum microsomes; test: Inhibition of estradiol (E2) glucuronidation in pooled human jejunum microsomes; format: biochemical; details: jejunum HJ61, E2 50 μM
From the text: Compounds were eluted using a binary solvent gradient system where solvent A was dilute phosphoric acid (pH 3) and solvent B was 80:20 acetonitrile-methanol. […] Detection was at 280 nm.

UGT1A1 = target: T2, UGT1A1 (Homo sapiens, UniProt P22309); test: Inhibition of raloxifene glucuronidation by recombinant UGT1A1 Supersomes; details: human, Supersomes with recombinant human UGT1A1, pH 7.5, probe raloxifene 50 μM
T2 sequence (P22309 26-533): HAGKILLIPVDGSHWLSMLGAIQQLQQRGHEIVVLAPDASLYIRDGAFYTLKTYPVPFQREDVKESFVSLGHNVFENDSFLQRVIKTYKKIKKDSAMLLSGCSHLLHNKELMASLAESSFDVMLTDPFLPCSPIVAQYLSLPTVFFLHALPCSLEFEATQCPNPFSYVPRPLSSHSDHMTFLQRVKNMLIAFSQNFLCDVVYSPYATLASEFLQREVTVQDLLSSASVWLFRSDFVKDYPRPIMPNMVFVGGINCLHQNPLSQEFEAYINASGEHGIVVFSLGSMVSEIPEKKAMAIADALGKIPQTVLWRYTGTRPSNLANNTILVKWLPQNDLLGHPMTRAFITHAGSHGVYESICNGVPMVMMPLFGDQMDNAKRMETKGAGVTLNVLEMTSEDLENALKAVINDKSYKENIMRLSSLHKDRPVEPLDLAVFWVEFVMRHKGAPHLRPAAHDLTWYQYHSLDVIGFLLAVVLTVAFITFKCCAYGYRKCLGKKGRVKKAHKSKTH
Description: Compounds were eluted using a binary solvent gradient system. Solvent A was water brought to pH 8 with NH4OH. Solvent B was methanol. Solvent flow rate was 1 ml/min and the column temperature was maintained at 50° C. Detection was at 280 nm. […] The system was then returned to the initial conditions and equilibrated for 3 min.

[4] = inhibitor 2 μM, raloxifene 50 μM
[5] = inhibitor 5 μM, raloxifene 50 μM
[6] = inhibitor 10 μM, raloxifene 50 μM
[7] = inhibitor 25 μM, raloxifene 50 μM
[8] = inhibitor 50 μM, raloxifene 50 μM
[9] = inhibitor 100 μM, raloxifene 50 μM
[10] = inhibitor 500 μM, raloxifene 50 μM
[11] = liver lot 032101, inhibitor 10 μM
[12] = liver lot 062101, inhibitor 10 μM
[13] = liver lot 083000, inhibitor 10 μM
[14] = raloxifene 50 μM, inhibitor 10 μM
[15] = raloxifene 50 μM, inhibitor 25 μM
[16] = raloxifene 50 μM, inhibitor 50 μM
[17] = raloxifene 50 μM, inhibitor 100 μM

- Vmax of 7-HFC glucuronidation (fit of the experiment with this inhibitor) [1]: 64 ± 4 nmol/min/mg
- Km ([1]; read-out: Km of 7-HFC glucuronidation (fit of the experiment with this inhibitor)): 87 ± 7 µM
- % of control metabolism (SD, n = 3), raloxifene glucuronide G1 [2, 4]: 94 (6) %
- % of control metabolism (SD, n = 3), raloxifene glucuronide G1 [2, 5]: 83 (1) %
- % of control metabolism (SD, n = 3), raloxifene glucuronide G1 [2, 6]: 58 (3) %
- % of control metabolism (SD, n = 3), raloxifene glucuronide G1 [2, 7]: 36 (2) %
- % of control metabolism (SD, n = 3), raloxifene glucuronide G1 [2, 8]: 14 (1) %
- % of control metabolism (SD, n = 3), raloxifene glucuronide G1 [2, 9]: 8 (0) %
- % of control metabolism (SD, n = 3), raloxifene glucuronide G1 [2, 10]: 0 (0) %
- % of control metabolism (SD, n = 3), raloxifene glucuronide G2 [2, 4]: 107 (5) %
- % of control metabolism (SD, n = 3), raloxifene glucuronide G2 [2, 5]: 109 (1) %
- % of control metabolism (SD, n = 3), raloxifene glucuronide G2 [2, 6]: 111 (7) %
- % of control metabolism (SD, n = 3), raloxifene glucuronide G2 [2, 7]: 100 (5) %
- % of control metabolism (SD, n = 3), raloxifene glucuronide G2 [2, 8]: 58 (2) %
- % of control metabolism (SD, n = 3), raloxifene glucuronide G2 [2, 9]: 43 (0) %
- % of control metabolism (SD, n = 3), raloxifene glucuronide G2 [2, 10]: 0 (0) %
- % of control metabolism, raloxifene G1 [2, 11]: 70 (2) %
- % of control metabolism, raloxifene G2 [2, 11]: 96 (1) %
- % of control metabolism, raloxifene G1 [2, 12]: 89 (2) %
- % of control metabolism, raloxifene G2 [2, 12]: 83 (2) %
- % of control metabolism, raloxifene G1 [2, 13]: 58 (3) %
- % of control metabolism, raloxifene G2 [2, 13]: 111 (7) %
- % of control metabolism, raloxifene G1 [2, 14]: 58 (3) %
- % of control metabolism, raloxifene G2 [2, 14]: 111 (7) %
- % of control metabolism, raloxifene G1 [2, 15]: 36 (1) %
- % of control metabolism, raloxifene G2 [2, 15]: 100 (5) %
- % of control metabolism, raloxifene G1 [2, 16]: 14 (1) %
- % of control metabolism, raloxifene G2 [2, 16]: 58 (2) %
- % of control metabolism, raloxifene G1 [2, 17]: 8 (0) %
- % of control metabolism, raloxifene G2 [2, 17]: 43 (0) %
- residual metabolism (% of control), E2-3-β-D-glucuronide ([3]; inhibitor 1 μM): 86 (2) %
- residual metabolism (% of control), E2-17-β-D-glucuronide ([3]; inhibitor 1 μM): 108 (5) %
- residual metabolism (% of control), E2-3-β-D-glucuronide ([3]; inhibitor 10 μM): 53 (4) %
- residual metabolism (% of control), E2-17-β-D-glucuronide ([3]; inhibitor 10 μM): 78 (3) %
- residual metabolism (% of control), E2-3-β-D-glucuronide ([3]; inhibitor 100 μM): 5 (1) %
- residual metabolism (% of control), E2-17-β-D-glucuronide ([3]; inhibitor 100 μM): 24 (4) %
- activity at 15 min (UGT1A1; formation of glucuronide G1): 59%
- activity at 15 min, 10 µM (UGT1A1; formation of glucuronide G1, % of control metabolism, raloxifene G1, UGT1A1, inhibitor 10 μM): 59%
- activity at 15 min, 25 µM (UGT1A1; formation of glucuronide G1, % of control metabolism, raloxifene G1, UGT1A1, inhibitor 25 μM): 26%
SMILES: CC/C(=C(/CC)c1ccc(O)cc1)c1ccc(O)cc1 [Diethylstilbestrol, reference compound]
